Source: patent publication US9439918B2 (priority 2008, dated 2016)
Converted amounts (≈) assume the structure as drawn. Like-named read-outs stand apart in the source and are kept apart here.

Experiments:
[1] = tested on: intraphagocytic L. monocytogenes EGD; format: cell-based, Listeria monocytogenes; settings: for Emax, CFU decrease from original inoculum: 24 h
[2] = tested on: intraphagocytic L. pneumophila ATCC 33153; format: cell-based, Legionella pneumophila; settings: for Emax, CFU decrease from original inoculum: 48 h; for Emax, Δ log10 CFU at 24 h compared to the post-phagocytosis inoculum: L.p., intracellular
Salmonella spp. (20) = experiment: MIC, CLSI broth microdilution; format: cell-based; settings: for MIC50 / MIC90: Salmonella; for MIC Range / MIC 50% / MIC 90%: Salmonella spp.; for % by category resistant / % by category susceptible: CLSI 2008 criteria
Shigella spp. (40) = experiment: MIC, CLSI broth microdilution; format: cell-based; settings: for % by category resistant / % by category susceptible: CLSI 2008 criteria
H. pylori (23) = experiment: MIC, agar dilution / Etest
[3] = tested on: L. pneumophila ATCC 33153; format: cell-based, Legionella pneumophila
streptococci = experiment: MIC50 against Gram-positive cocci; format: cell-based
C. jejuni (20) = experiment: MIC, agar dilution / Etest; settings: for MIC50 / MIC90: Campylobacter jejuni; for MIC50: read-out: MIC 50% (Etest); for MIC90: read-out: MIC 90% (Etest)
staphylococci = experiment: MIC50 against Gram-positive cocci; format: cell-based
[4] = Helicobacter pylori, read-out: MIC 50% (Etest)
[5] = C. jejuni, 20 strains, agar dilution

## CC[C@H]1OC(=O)[C@H](C)[C@@H](O[C@H]2C[C@@](C)(OC)[C@@H](O)[C@H](C)O2)[C@H](C)[C@@H](O[C@@H]2O[C@H](C)C[C@H](N(C)C)[C@H]2O)[C@](C)(O)C[C@@H](C)CN(C)[C@H](C)[C@@H](O)[C@]1(C)O [AZI, azithromycin]
[1]
  Emax, Δ log10 CFU at 24 h compared to the post-phagocytosis inoculum: −0.81 Δ log10 CFU
  Emax, CFU decrease from original inoculum: −0.81 log10 units
[2]
  Emax, CFU decrease from original inoculum: −0.83 log10 units
  Emax, Δ log10 CFU at 24 h compared to the post-phagocytosis inoculum: −0.83 Δ log10 CFU
Salmonella spp. (20)
  MIC50: 4 µg/mL (≈ 5.34 µM)
  MIC90: 8 µg/mL (≈ 10.7 µM)
Salmonella spp. (20); 20 strains
  MIC Range: 2 to 8 µg/mL
Salmonella spp. (20); 20 strains, listed as AZ
  MIC Range: 2-8 (AZ) μg/ml
Shigella spp. (40); Shigella spp., 40 strains
  MIC50: 4 µg/mL (≈ 5.34 µM)
  MIC90: 8 µg/mL (≈ 10.7 µM)

## CC1(C)S[C@@H]2[C@H](NC(=O)[C@H](N)c3ccccc3)C(=O)N2[C@H]1C(=O)O [Ampicillin]
H. pylori (23); [4]
  MIC50: ≤ 0.015 µg/mL

## CC[C@H]1OC(=O)[C@@](C)(F)C(=O)[C@H](C)[C@@H](OC2OC(C)CC(N(C)C)C2O)[C@@](C)(OC)C[C@@H](C)C(=O)[C@H](C)[C@H]2N(CCCCn3cc(-c4cccc(N)c4)nn3)C(=O)O[C@]12C (some centres unmarked) [CEM-101, 11-N-4-(3-aminophenyl)-[1,2,3]triazol-1-yl]-butyl-5-desosaminyl-3-oxo-2-fluoro-erythronolide A,-11,12-cyclic carbamate]
[3]; conventional susceptibility testing
  MIC: 0.004 µg/mL (≈ 0.00473 µM)
[3]; pH-adjusted broth, pH 6.5
  MIC: 0.01 µg/mL (≈ 0.0118 µM)
[3]; pH-adjusted broth, pH 7.4
  MIC: 0.005 µg/mL (≈ 0.00592 µM)
[1]
  Emax, Δ log10 CFU at 24 h compared to the post-phagocytosis inoculum: −0.66 Δ log10 CFU
  Emax, CFU decrease from original inoculum: −0.66 log10 units
streptococci
  MIC50: 0.015 µg/mL (≈ 0.0178 µM)
C. jejuni (20); [5]
  MIC 50%: 1 µg/mL (≈ 1.18 µM)
  MIC 90%: 4 µg/mL (≈ 4.73 µM)
C. jejuni (20); MIC distribution, 20 strains
  No. of strains at MIC 0.06: 0
  No. of strains at MIC 0.12: 0
  No. of strains at MIC 0.25: 0
  No. of strains at MIC 0.5: 0
  No. of strains at MIC 1: 10
  No. of strains at MIC 2: 0
  No. of strains at MIC 4: 8
  No. of strains at MIC 8: 2
  No. of strains at MIC ≦0.03: 0
  No. of strains at MIC ≧16: 0
staphylococci
  MIC50: 0.06 µg/mL (≈ 0.071 µM)
[2]
  Emax, CFU decrease from original inoculum: −1.03 log10 units
  Emax, Δ log10 CFU at 24 h compared to the post-phagocytosis inoculum: −1.03 Δ log10 CFU
Salmonella spp. (20); MIC distribution, 20 strains
  No. of strains at MIC 0.06: 0
  No. of strains at MIC 0.12: 0
  No. of strains at MIC 0.25: 0
  No. of strains at MIC 0.5: 0
  No. of strains at MIC 1: 3
  No. of strains at MIC 2: 4
  No. of strains at MIC 4: 4
  No. of strains at MIC 8: 4
  No. of strains at MIC ≦0.03: 0
  No. of strains at MIC ≧16: 5
Salmonella spp. (20); 20 strains
  MIC 50%: 4 µg/mL (≈ 4.73 µM)
  MIC 90%: >16 µg/mL
Shigella spp. (40); MIC distribution, 40 strains
  No. of strains at MIC 0.06: 0
  No. of strains at MIC 0.12: 0
  No. of strains at MIC 0.25: 0
  No. of strains at MIC 0.5: 0
  No. of strains at MIC 1: 2
  No. of strains at MIC 2: 0
  No. of strains at MIC 4: 14
  No. of strains at MIC 8: 18
  No. of strains at MIC ≦0.03: 0
  No. of strains at MIC ≧16: 6
Shigella spp. (40); Shigella spp., 40 strains
  MIC 50%: 8 µg/mL (≈ 9.47 µM)
  MIC 90%: 16 µg/mL (≈ 18.9 µM)

## CC[C@H]1OC(=O)[C@H](C)[C@@H](O[C@H]2C[C@@](C)(OC)[C@@H](O)[C@H](C)O2)[C@H](C)[C@@H](O[C@@H]2O[C@H](C)C[C@H](N(C)C)[C@H]2O)[C@](C)(OC)C[C@@H](C)C(=O)[C@H](C)[C@@H](O)[C@]1(C)O [CLR, clarithromycin]
H. pylori (23); CLSI 2008 criteria
  % by category resistant: 8.7%
  % by category susceptible: 91.3%
H. pylori (23); Helicobacter pylori
  MIC50: 0.03 µg/mL (≈ 0.0401 µM)
  MIC90: 0.12 µg/mL (≈ 0.16 µM)
H. pylori (23); [4]
  MIC50: ≤ 0.015 µg/mL
C. jejuni (20); C. jejuni, 20 strains
  MIC Range (Etest): 1 to 8 µg/mL
C. jejuni (20); C. jejuni, 20 strains, listed as CLA
  MIC Range (Etest): 1-8 (CLA) μg/ml
C. jejuni (20)
  MIC50: 2 µg/mL (≈ 2.67 µM)
  MIC90: 4 µg/mL (≈ 5.35 µM)
[2]
  Emax, Δ log10 CFU at 24 h compared to the post-phagocytosis inoculum: −0.71 Δ log10 CFU
Salmonella spp. (20)
  MIC50: 0.015 µg/mL (≈ 0.0201 µM)
  MIC90: > 16 µg/mL
Shigella spp. (40); Shigella spp., 40 strains
  MIC50: > 16 µg/mL
  MIC90: > 16 µg/mL

## C=CC1=C(C(=O)O)N2C(=O)[C@@H](NC(=O)/C(=N\O)c3csc(N)n3)[C@H]2SC1 [Cefdinir]
Salmonella spp. (20)
  % by category resistant: 0.0%
  % by category susceptible: 100.00%
  MIC50: 0.25 µg/mL (≈ 0.632 µM)
  MIC90: 0.5 µg/mL (≈ 1.26 µM)
Shigella spp. (40)
  % by category resistant: 0.0%
  % by category susceptible: 100.0%
Shigella spp. (40); Shigella spp., 40 strains
  MIC50: 0.25 µg/mL (≈ 0.632 µM)
  MIC90: 0.25 µg/mL (≈ 0.632 µM)

## CCC[C@@H]1C[C@@H](C(=O)N[C@@H]([C@H]2O[C@H](SC)[C@H](O)[C@@H](O)[C@H]2O)[C@H](C)Cl)N(C)C1 [Clindamycin]
Shigella spp. (40); Shigella spp., 40 strains
  MIC50: > 4 µg/mL
  MIC90: > 4 µg/mL

## CC[C@H]1OC(=O)[C@H](C)[C@@H](O[C@H]2C[C@@](C)(OC)[C@@H](O)[C@H](C)O2)[C@H](C)[C@@H](O[C@@H]2O[C@H](C)C[C@H](N(C)C)[C@H]2O)[C@](C)(O)C[C@@H](C)C(=O)[C@H](C)[C@@H](O)[C@]1(C)O [Erythromycin]
C. jejuni (20); C. jejuni, 20 strains
  MIC Range (Etest): 0.5 to 4 µg/mL
C. jejuni (20)
  MIC50: 2 µg/mL (≈ 2.73 µM)
  MIC90: 4 µg/mL (≈ 5.45 µM)
Salmonella spp. (20)
  MIC50: > 4 µg/mL
  MIC90: > 4 µg/mL
Shigella spp. (40); Shigella spp., 40 strains
  MIC50: > 4 µg/mL
  MIC90: > 4 µg/mL

## C[C@H]1COc2c(N3CCN(C)CC3)c(F)cc3c(=O)c(C(=O)O)cn1c23 [Levofloxacin, levofloxacin]
Salmonella spp. (20)
  % by category resistant: 0.0%
  % by category susceptible: 95.0%
  MIC50: ≤ 0.12 µg/mL
  MIC90: 1 µg/mL (≈ 2.77 µM)
Shigella spp. (40)
  % by category resistant: 0.0%
  % by category susceptible: 100.0%
Shigella spp. (40); Shigella spp., 40 strains
  MIC50: ≤ 0.12 µg/mL
  MIC90: ≤ 0.12 µg/mL

## Cc1ncc([N+](=O)[O-])n1CCO [Metronidazole]
H. pylori (23); H. pylori, eight strains, Etest
  MIC Range (Etest): 0.06 to 64 µg/mL
H. pylori (23); [4]
  MIC50: 0.5 µg/mL (≈ 2.92 µM)

## CC[C@H]1OC(=O)[C@H](C)C(=O)[C@H](C)[C@@H](O[C@@H]2O[C@H](C)C[C@H](N(C)C)[C@H]2O)[C@](C)(OC)C[C@@H](C)C(=O)[C@H](C)[C@H]2N(CCCCn3cnc(-c4cccnc4)c3)C(=O)O[C@]12C [TEL, telithromycin]
[2]
  Emax, Δ log10 CFU at 24 h compared to the post-phagocytosis inoculum: −0.63 Δ log10 CFU
Salmonella spp. (20)
  MIC50: 8 µg/mL (≈ 9.85 µM)
  MIC90: > 16 µg/mL
Shigella spp. (40); Shigella spp., 40 strains
  MIC50: 16 µg/mL (≈ 19.7 µM)
  MIC90: 16 µg/mL (≈ 19.7 µM)

## CN(C)[C@@H]1C(O)=C(C(N)=O)C(=O)[C@@]2(O)C(O)=C3C(=O)c4c(O)cccc4[C@@](C)(O)[C@H]3C[C@@H]12 [Tetracycline]
H. pylori (23); [4]
  MIC50: 0.06 µg/mL (≈ 0.135 µM)
C. jejuni (20); C. jejuni, 20 strains
  MIC Range (Etest): 0.06 to 256 µg/mL
C. jejuni (20)
  MIC50: 64 µg/mL (≈ 144 µM)
  MIC90: > 256 µg/mL

## Amoxicillin-clavulanate
Salmonella spp. (20)
  % by category resistant: 0.0%
  % by category susceptible: 95.0%
Salmonella spp. (20); 20 strains
  MIC 50%: 2 µg/mL
  MIC 90%: 8 µg/mL
Shigella spp. (40)
  % by category resistant: 0.0%
  % by category susceptible: 72.5%
Shigella spp. (40); Shigella spp., 40 strains
  MIC 50%: 8 µg/mL
  MIC 90%: >8 µg/mL

## Quinupristin-dalfopristin
Salmonella spp. (20); 20 strains
  MIC 50%: >4 µg/mL
  MIC 90%: >4 µg/mL
Shigella spp. (40); Shigella spp., 40 strains
  MIC 50%: >4 µg/mL
  MIC 90%: >4 µg/mL
  MIC Range: >4 µg/mL

## Trimethoprim-sulfamethoxazole [Trim-sulfa]
Salmonella spp. (20)
  % by category resistant: 0.0%
  % by category susceptible: 100.00%
Salmonella spp. (20); 20 strains
  MIC 50%: ≦0.25 μg/ml
  MIC 90%: ≦0.25 μg/ml
  MIC Range: ≦0.25 μg/ml
Shigella spp. (40)
  % by category resistant: 62.5%
  % by category susceptible: 37.5%
Shigella spp. (40); Shigella spp., 40 strains
  MIC 50%: >4 µg/mL
  MIC 90%: >4 µg/mL
